The target of assay [1] is T1, Gal-1 (Homo sapiens, UniProt P09382).
T1 construct: made in house; host or cells: E. coli BL21(DE3)
The experiment in a line: Pull-down assay with immobilized protein and LSM libraries. Format: binding. Particulars: H12 library; 1:1 binding assumed; read-out: Surface mapping KD (apparent). A digest of the protocol: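 His-tagged protein immobilized on Co-NTA resin (64 µM) in 20 mM HEPES pH 7.4, 150 mM NaCl, equilibrated 30 min at room temperature with foldamer LSM sublibraries at equimolar total concentration. Unbound fractions quantified by HPLC-MS versus protein-free resin control; apparent KD assumes 1:1 binding.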

In assay [2] the target is T2, S100B (Homo sapiens, UniProt P04271).
T2 construct: made in house; host or cells: Escherichia coli BL21(DE3)
T2 sequence (P04271 1-92): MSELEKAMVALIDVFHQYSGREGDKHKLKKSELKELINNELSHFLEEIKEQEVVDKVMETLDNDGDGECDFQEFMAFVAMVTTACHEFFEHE
The assay is described as above. The settings on record: H12 library; 1:1 binding assumed; read-out: Surface mapping KD (apparent). Format: binding. The gist of the method:
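Buffers were HEPES pH 7.4 with 150 mM NaCl, plus 1 mM TCEP and 1 mM CaCl2 (50 mM HEPES) for S100A4 and S100B, 1 mM TCEP for Gal-1, and no additive for RecQ-WH. Immobilized protein at 64 µM was equilibrated 30 min with the LSM sublibrary, and unbound probes were measured by LC-MS.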

pKd: −log10 of the molar value.

Here are results for seven molecules from PMC8162404, “Proteomimetic surface fragments distinguish targets by function” (Chemical Science, 2020).

T1 sequence (P09382 whole entry): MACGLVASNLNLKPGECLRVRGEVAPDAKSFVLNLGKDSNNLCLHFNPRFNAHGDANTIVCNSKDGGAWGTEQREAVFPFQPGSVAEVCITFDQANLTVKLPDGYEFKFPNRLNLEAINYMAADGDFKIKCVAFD

As to `NC(=O)[C@H]1CCC[C@@H]1NC(=O)[C@H]1CCC[C@@H]1NC(=O)C[C@H](CCC(=O)O)NC(=O)[C@H]1CCC[C@@H]1NC(=O)[C@H]1CCC[C@@H]1NC(=O)C[C@H](Cc1ccc(O)cc1)NC(=O)[C@H]1CCC[C@@H]1NC(=O)[C@H]1CCC[C@@H]1N` [H12 YE], the pKd in assay [1] was 3.70; in assay [2] it was 3.34.
On to `NC(=O)C[C@@H](CC(=O)N[C@H]1CCC[C@@H]1C(=O)N[C@H]1CCC[C@@H]1C(N)=O)NC(=O)[C@H]1CCC[C@@H]1NC(=O)[C@H]1CCC[C@@H]1NC(=O)C[C@H](Cc1ccc(O)cc1)NC(=O)[C@H]1CCC[C@@H]1NC(=O)[C@H]1CCC[C@@H]1N` [H12 YN], for which the pKd is 3.74 in assay [1] and 3.63 in assay [2].
The corresponding values for `NC(=O)CC[C@@H](CC(=O)N[C@H]1CCC[C@@H]1C(=O)N[C@H]1CCC[C@@H]1C(N)=O)NC(=O)[C@H]1CCC[C@@H]1NC(=O)[C@H]1CCC[C@@H]1NC(=O)C[C@H](Cc1ccc(O)cc1)NC(=O)[C@H]1CCC[C@@H]1NC(=O)[C@H]1CCC[C@@H]1N` [H12 YQ] are 3.75 and 3.65.
For `N=C(N)NCCC[C@@H](CC(=O)N[C@H]1CCC[C@@H]1C(=O)N[C@H]1CCC[C@@H]1C(N)=O)NC(=O)[C@H]1CCC[C@@H]1NC(=O)[C@H]1CCC[C@@H]1NC(=O)C[C@H](Cc1ccc(O)cc1)NC(=O)[C@H]1CCC[C@@H]1NC(=O)[C@H]1CCC[C@@H]1N` [H12 YR] the same measures were 4.21 and 4.19.
Take `NC(=O)[C@H]1CCC[C@@H]1NC(=O)[C@H]1CCC[C@@H]1NC(=O)C[C@H](CO)NC(=O)[C@H]1CCC[C@@H]1NC(=O)[C@H]1CCC[C@@H]1NC(=O)C[C@H](Cc1ccc(O)cc1)NC(=O)[C@H]1CCC[C@@H]1NC(=O)[C@H]1CCC[C@@H]1N` [H12 YS]: the pKd in assay [1] and in assay [2] was 3.71 throughout.
As to `C[C@@H](O)[C@@H](CC(=O)N[C@H]1CCC[C@@H]1C(=O)N[C@H]1CCC[C@@H]1C(N)=O)NC(=O)[C@H]1CCC[C@@H]1NC(=O)[C@H]1CCC[C@@H]1NC(=O)C[C@H](Cc1ccc(O)cc1)NC(=O)[C@H]1CCC[C@@H]1NC(=O)[C@H]1CCC[C@@H]1N` [H12 YT], the negative logarithm of the Kd (pKd) in assay [1] was 3.52; in assay [2], 3.60.
For `CC(C)[C@@H](CC(=O)N[C@H]1CCC[C@@H]1C(=O)N[C@H]1CCC[C@@H]1C(N)=O)NC(=O)[C@H]1CCC[C@@H]1NC(=O)[C@H]1CCC[C@@H]1NC(=O)C[C@H](Cc1ccc(O)cc1)NC(=O)[C@H]1CCC[C@@H]1NC(=O)[C@H]1CCC[C@@H]1N` [H12 YV] the same measures were 3.44 and 3.78.
